Columns and labels:
[1] = Color (Hunter coordinates) of Ni complex, swabbed on Ni-coated receptor (CF) sheet; format: physicochemical; design: key to Hunter coordinate a / Hunter Coordinates a: Hunter a: +a red, -a green; key to Hunter coordinate b / Hunter Coordinates b: Hunter b: +b yellow, -b blue; settings: for Chroma: C=(a^2 +b^2)^1/2; for Chroma / Image Color / Hunter Coordinates L / Hunter Coordinates a / Hunter Coordinates b: Ni(II) complex; for Chroma / Image Color: swab concn. 1% (Table 2); for Hunter Coordinates L / Hunter Coordinates a / Hunter Coordinates b: swab concn. 1%, 45°/0° reflectance, illuminant C (Table 2)
Method: In general, the colors of the complexes, as listed in Table 2 and Experiments 4, 6, and 7 below, were determined by preparing a 1% solution of the color-former or mixture of color-formers in an appropriate solvent. Unless otherwise indicated, the solvent was composed of a mixture of tributyl phosphate (26.5%), diethyl phthalate (17.6%), and cyclohexane (55.9%). The images were formed by applying two stripes of the solution to a substrate coated with a Ni^2+ coated receptor sheet using a cotton tipped applicator swab. Rapid and complete development of the image was achieved by passing the sheet through a hot shoe adjusted to 102° C., making a revolution every 10 seconds. The visually observed colors were measured and recorded.
One method of color measurement is to determine the color's position in color space. One color space system is the Hunter System; see F. W. Billmeyer, Jr., and M. Saltzman, Principles of Color Technology; John Wiley & Sons; New York, N.Y.; Ch. 2 & 3, 1981. In this system three mutually perpendicular axes (L, a, and b) are needed to define a color. "L" (+z axis) represents the lightness or darkness of the image; "a" (x axis) represents the amount of red or green (+a is red, -a is green); and "b" (y axis) represents the amount of yellow or blue (+b is yellow, -b is blue). By measuring a material's L, a, and b values, the color of one sample can be compared with that of other samples. Another value used in the Hunter System is Chroma (C). Chroma is defined by the equation [C=(a^2 +b^2)^1/2 ] and represents the distance of the image coordinates from the origin. The greater the Chroma, the more intense the image. Chroma is used to compare images cf the same hue. Because the color of a sample is also dependent upon the color temperature of the illuminating source, the angle at which the sample is illuminated, the angle at which the illumination is reflected, and the angle of the retina illuminated, these all need to be specified. Many instruments have been developed to record these values. One such instrument is the HunterLab LabScan II. This instrument is capable of automatically determining the L, a, and b values for a given sample, and was used for the following examples.
The L, a, and b color coordinates of the more uniform stripe were measured for 45°/0° reflectance on a HunterLab LabScan II, secondary observer, using illuminant C. The observed (image) color and the Hunter coordinates for Ni^2+ complexes of the yellow color-formers of this invention are given in Table 2.
A 1% solution of the condensation product in the encapsulation fill mix was swabbed onto a carbonless paper CF sheet (sold by the 3M Co. St. Paul, Minn.) with a cotton swab. The reflectance spectra had Hunter coordinates of: […]

[2] = Solubility in capsule fill solvents; format: physicochemical; settings: for Dye Solubility: 4320 min
Method: The encapsulation process requires the color-forming ligand be dissolved in a solvent or mixed solvents, because of the nature of the procedure. Formation of a microcapsule shell as by condensation of urea or melamine with an aldehyde such as formaldehyde or mixtures of aldehydes to form the capsule shell is carried out in an acidic aqueous medium and the color-former solution must be insoluble and unreactive to these reagents for the encapsulation to proceed. Solvents commonly used include tributyl phosphate, diethyl phthalate, and cyclohexane. […] As mentioned above, solubility of yellow color-formers exemplified by structure I in nonaqueous solvents such as those used in the encapsulation process may be increased by substituting alkyl, aryl, aralkyl, alkenyl, or such groups for the hydrogens on the various positions available in the structure I above.
(§1) This color observed on the CF sheet was yellow. […] Solubility in a solvent blend of tributyl phosphate, diethyl phthalate and cyclohexane (capsule solvents for preparing carbonless copy-paper) was >9% by weight. Thus the ligand is eminently suitable for encapsulation. The ligand is not volatile at 71 ° C. overnight.
Solubility in a solvent blend of tributyl phosphate, diethyl phthalate and cyclohexane (capsule solvents for preparing carbonless copy-paper) was 3% by weight. Thus the ligand is eminently suitable for encapsulation. The ligand is not volatile at 71 ° C. overnight.
*THE SOLUBILITY WAS DEEMED PREFERABLE IF IT WAS GREATER THAN 2% IN THE
FILL MIX AT ROOM TEMPERATURE FOR 3 DAYS. THE FILL MIX COMPRISED
TRIBUTYLPHOSPHATE (26.5%); DIETHYLPHTHALATE (17.6%); AND CYCLOHEXANE

[3] = Imaging of CB sheet with encapsulated color-former on Ni-coated CF sheet; format: physicochemical; settings: carbonless paper capsules
Method: A precondensate solution was prepared comprising 192 g of formalin, 0.63 g of potassium tetraborate, 72 g of urea, and 328 g of soft water. The formalin was 37% formaldehyde and was added to a 1-liter flask equipped with a stirrer and heating mantle. The potassium tetraborate and urea were then added, and the mixture was heated to 70° C. The reaction was maintained at that temperature for 2.5-3.0 hr. The reaction mixture was then diluted with the water and allowed to cool. The precondensate solution, with about 24% solids, was then ready for use in the encapsulation process.
The precondensate and fill (ethanediimidic acid bis[hydrazide] and carrier or fill solvents) were combined to make capsules according to the following procedure. Sodium chloride (29.54 g) was added to the stirred precondensate solution and the temperature of the solution was adjusted to 20° C. The fill material (215 g) was added and full agitation was begun. After 5 minutes of stirring, 10% hydrochloric acid solution was added over 5 minutes in an amount such that the final pH of the reaction mixture was about 2.8. The reaction mixture was stirred for another 12 minutes. More of the 10% hydrochloric acid solution was added over a period of 12 minutes, in an amount such that the final pH of the solution was about […]. The reaction mixture was stirred at 20° C. for 1 hr, and then at 60° C. for 1-3 hr. The acidic solution was allowed to cool and adjusted to a pH of 7 by addition of concentrated ammonium hydroxide solution (28%). The capsule slurry could then be stored for later use.
The capsule slurry (10 g) was added to 65 g of a 1.5% aqueous sodium alginate solution. The mixture was applied to a coated paper using a bar coater with a 3 mil gap. The coating was allowed to dry at room temperature.
A 2% solution of the compound 1 in the capsule fill solvent of diethyl phthalate, tributyl phosphate, and cyclohexane was encapsulated by the procedure described in Experiment 5 above. A coating mixture of 10.0 g of capsule slurry, 2.5 g of Dow-620 butadiene-styrene latex, and 62.5 g of 1.5% sodium alginate slurry was coated onto paper by the draw down procedure described above.
A 7.5% solution comprising 5.45% N-(5-octanoylamido-2-metylpentyl)dithiooxamide/N-(5-octanoylamido-4-methylpentyl)dithiooxamide (G') mixture and 2.05% N,N'-di(5-octanoylamido-2-methylpentyl)dithiooxamide/N-(5-octanoylamido-2- methylpentyl)-N'-(5-octanoylamido-4-methylpentyl)dithiooxamide/N,N'-(5-octanoylamido-2-methylpentyl)dithiooxamide (G) mixture in the fill solvent mixture of diethyl phthalate, tributyl phosphate, and cyclohexanone was encapsulated by the procedure described above. A coating mixture of 10.0 g of capsule slurry, 2.5 g of Dow 620 styrene-butadiene latex, and 62.5 g of 1.5% sodium alginate solution was coated onto paper by the draw down procedure described in Experiment 5 above.
A blend was prepared of 10 g of the capsule slurry containing compound 1, with 10 g of capsule slurry containing 5.45% N-(5-octanoylamido-2-methylpentyl)dithiooxamide/N-(5-octanoylamido-4-methylpentyl)dithiooxamide (G') mixture and 2.05% N,N'-di(5-octanoylamido-2-methylpentyl)dithiooxamide/N-(5-octanoylamido-2- methylpentyl)-N'-(5-octanoylamido-4-methylpentyl)dithiooxamide/N,N'-di(5-octanoylamido-4-methylpentyl)dithiooxamide (G) mixture. […]

[4] = Stability in concentrated hydrochloric acid; format: physicochemical
[5] = Color formation with zinc salts (zinc rosinate); format: physicochemical
Method: as §1
This color observed on the CF sheet was yellow.

[6] = Volatility: transfer from simulated donor sheet to receptor sheet; format: physicochemical; settings: 71 ° C. overnight
Text: The method utilized in the experiments to both define and evaluate the level of volatility was as follows. A single sheet piece of Grade #10 (20×12 cm) cheesecloth (AF & F., Item No. 588033, American Fiber and Finishing, Inc., Burlington, Mass.) was placed between a simulated donor sheet and a receptor sheet of a carbonless paper construction. The simulated donor sheet comprised a sheet of paper saturated with color-former of structure I, which was used to simulate a CB sheet with ruptured capsules. Pressure was then applied for 24 hours by placing 9 pounds of paper on top of the sheets, to simulate storage conditions of the paper packages. The formation of color on the receptor sheet, due to transfer of volatile color-former thereto, was used as an indication that the particular color-former was less than optimally desirable for carbonless paper constructions, i.e., was volatile. A compound was considered generally to be nonvolatile, within the meaning of the term as used herein to define the present invention and thus to define color-formers most acceptable for use in carbonless image transfer arrangements, if no color was formed after the simulated test was run for about 24 hours at 25° C. In some instances, if no color was formed after storage at room temperature (25° C.), successively higher temperatures were used, as for example 49° C., 60° C., and 71° C. […]

[7] = background art; cited from earlier work
[8] = 1% solution in encapsulation fill mix swabbed onto 3M CF sheet (Experiments 2, 3)

Row | Chroma [1] | Image Color [1] | Hunter Coordinates L [1] | Hunter Coordinates a [1] | Hunter Coordinates b [1] | Dye Solubility [2] [%] | color developed upon imaging [3] | Hunter coordinate L [1, 8] | Hunter coordinate a [1, 8] | Hunter coordinate b [1, 8] | color observed on the CF sheet ([1]; 1% solution swabbed (Experiments 2, 3)) | Solubility in a solvent blend of tributyl phosphate, diethyl phthalate and cyclohexane [2] [% by weight] | stability in concentrated hydrochloric acid [4] | color formation when reacted with zinc rosinate [5] | volatility [6] | Structure (SMILES) | solubility in encapsulation / capsule solvents (in words) [2] | image color with metal [7]
1 | 40.7 | Yellow | 84.5 | -9.7 | 39.5 | < 2.0 | weak and often unacceptable |  |  |  |  |  |  |  |  | NC(=NN=Cc1ccccc1O)C(N)=NN=Cc1ccccc1O [Compound 9, Ethanediimidic acid bis[(2-hydroxyphenylmethylene)hydrazide]] | too low in the solvent blend used in many carbonless paper capsules | 
2 | 41.6 | Yellow | 82.5 | -6.6 | 41.0 | > 3.0 |  | 82.5 | -6.64 | 41.0 | yellow | 3 | stable | does not form color | not volatile | C=CCc1cccc(C=NN=C(N)C(N)=NN=Cc2cccc(CC=C)c2O)c1O [Compound 16, ethanediimidic acid bis[(3-allylsalicylidene)hydrazide]] | good solubility in capsule solvents | 
3 |  |  |  |  |  |  |  |  |  |  |  |  |  |  |  | S=C(NCc1ccccc1)C(=S)NCc1ccccc1 [H, N,N'-di(benzyl)dithiooxamide] |  | blue-purple

From patent publication US5204311A, “Ethanediimidic acid bis[(arylalkylidene)hydrazide] color-formers” (Minnesota Mining and Manufacturing Company, priority 1991, dated 1993)
